According to patent US6060516A, “N^1 -propargylhydrazines, N^2 -propargylhydrazines and their analogs for the treatment of depression, anxiety and neurodegeneration” (CV Technologies, Inc., priority 1998, dated 2000):

Tests used:
MAO-A = MAO-A inhibition ex vivo in DSP-4 treated mice (brain); parameters: species or system mouse
Experimental: The compounds were evaluated for ex vivo monoamine oxidase-A inhibiting activity using the radiochemical procedure of Lyles, G. A. and Callingham, B. A. (1982). […] Biochem. Pharmacol. 31: 1417-1424. Radiolabelled 5-hydroxytryptamine was used as a substrate for monoamine oxidase-A. The compounds of interest were either injected intraperitonealy in DMSO or administered by gavage in water for various periods. The animals were killed by decapitation and the brains and livers immediately removed and frozen until assayed for monoamine oxidase-A activity. Tissues were homogenized and appropriately diluted in buffer prior to incubation. Incubations proceeded at 37° C. for 10 minutes. Incubation was terminated by the addition of acid and the radiolabelled product (5-hydroxyindoleacetaldehyde and 5-hydroxyindoleacetic acid) was extracted and quantified by liquid scintillation counting procedures. Incubations were done in triplicate and incubations containing phenelzine were included for comparison. The percent inhibition of monoamine oxidase-A activity compared to controls containing no drug was calculated.
(§1) Neuroprotectant activity was evaluated by examining the prevention of DSP-4 induced noradrenaline depletion in mouse hippocampus as described in Yu, P. H., Davis, B. A., Fang, J. and Boulton, A. A. (1994), Neuroprotective effect of some monoamine oxidase-B inhibitors against DSP-4 induced noradrenaline depletion in the mouse hippocampus, J. Neurochem. 63: 1820-1828. Briefly, mice were injected (i.p.) with either 20% DMSO or potential neuroprotectants (10 mg/kg in 20% DMSO). One hour later they were injected with either water or DSP-4 (50 mg/kg in water). One week later the mice were killed and the brains removed and the hippocampus dissected out. The hippocampus was frozen and saved for estimation of noradrenaline and other aminergic neurotransmitters and their metabolites as in Sloley, B. D. and Goldberg J. I. (1991), Determination of γ-glutamyl conjugates of monoamines by means of high-performance liquid chromatography with electrochemical detection and application to gastropod tissues, J. Chromatog. 567: 49-56. The rest of the brain was frozen and retained for estimation of monoamine oxidase activities ex vivo as described earlier.

[1] = tested on: DSP-4 induced noradrenaline depletion in mouse hippocampus; experiment: Prevention of DSP-4 induced noradrenaline depletion in mouse hippocampus; type: in vivo; conditions: for protection against DSP-4 induced noradrenaline depletion / neuroprotective effect: 10 mg/kg, mouse hippocampus, in words
Experimental: as §1

MAO-B = MAO-B inhibition ex vivo in DSP-4 treated mice (brain); parameters: species or system mouse
Experimental: Biochem. Pharmacol. 31: 1417-1424. Radiolabelled β-phenylethylamine was employed as a substrate for monoamine oxidase-B. The compounds of interest were either injected intraperitoneally in DMSO or administered by gavage in water for various periods. The animals were killed by decapitation and the brains and livers immediately removed and frozen until assayed for monoamine oxidase-B activity. Tissues were homogenized and appropriately diluted in buffer prior to incubation. Incubations proceeded at 37° C. for 10 minutes. Incubation was terminated by the addition of acid and the radiolabelled product (phenylacetic acid) was extracted and quantified by liquid scintillation counting procedures. Incubations were done in triplicate and incubations containing phenelzine were included for comparison. The percent inhibition of monoamine oxidase-B activity compared to controls containing no drug was calculated.
Neuroprotectant activity was evaluated by examining the prevention of DSP-4 induced noradrenaline depletion in mouse hippocampus as described in Yu, P. H., Davis, B. A., Fang, J. and Boulton, A. A. (1994), Neuroprotective effect of some monoamine oxidase-B inhibitors against DSP-4 induced noradrenaline depletion in the mouse hippocampus, J. Neurochem. 63: 1820-1828. Briefly, mice were injected (i.p.) with either 20% DMSO or potential neuroprotectants (10 mg/kg in 20% DMSO). […]

PC12 cells = experiment: PC12 neurite outgrowth (neurotrophic effect); type: cell-based; conditions: for Index of Neurite Outgrowth: seven days
Experimental: The effects of CVT-P040 on neurite outgrowth in cell culture were investigated using an established PC 12 pheochromocytoma cell culture. The effects of CVT-P040 and nerve growth factor on neurite outgrowth were estimated using the method described by Rydel, R. E and Greene, L. A.(1987), Acidic and basic fibroblast growth factors promote stable neurite outgrowth and basic neuronal differentiation in cultures of PC12 cells, J. Neuroscience 7: 3639-3653. Briefly, PC12 cells were seeded and maintained in 100 cm^2 tissue culture dishes at 37° C. in RPMI1640 media containing 1% antibiotics, 10% heat inactivated horse serum and 5% fetal bovine serum in a water saturated atmosphere of 95% air and 5% CO2. The cells were mechanically dislodged and plated into 35 mm collagen-coated tissue culture dishes containing a total of 2.0 ml complete medium at a density of […]. The medium was changed 3 times/week. Cellular responses to CVT-P040 and nerve growth factor (NGF) were determined by counting the number of PC12 cells containing processes. Photographs of the cells were taken after seven days treatment. Two cell fields were chosen in each dish and the photographs developed and printed. […] The neurite index was calculated using the following formula; Neurite Index=total neurite score (ΣS)/ total cell number (ΣN); ΣS=S1×N+S2×N +S3×N+S4×N, where N is the number of cells in each cell field.

[2] = tested on: DSP-4 induced noradrenaline depletion in mouse hippocampus; experiment: Prevention of DSP-4 induced noradrenaline depletion in mouse hippocampus; type: in vivo; conditions: 10 mg/kg then DSP-4 50 mg/kg; saline control experiment
[3] = tested on: NA, DA, 5-HT, 5-HIAA and DOPAC concentrations in rat hypothalamus; experiment: Rat hypothalamus amine and amine metabolite concentrations; type: in vivo; conditions: 2 × 75 μmol/kg per os
[4] = 10 mg/kg i.p. then DSP-4 50 mg/kg, 20% DMSO control experiment
[5] = 10 mg/kg then DSP-4 50 mg/kg, saline control experiment

SMILES: C#CCN(N)CCc1ccccc1 [CVT-P040, N^1 -propargylphenelzine]
- MAO-A % Inhibition (MAO-A; [4]): 57.9 ± 2.9%
- preference for MAO-A inhibition (MAO-A; DSP-4 experiment, 10 mg/kg, in words): strong preference for MAO-A inhibition
- % NA Restoration [1, 4]: 55.4%
- NA [1, 4]: 235 ± 26 ng/g
- protection against DSP-4 induced noradrenaline depletion / neuroprotective effect [1]: significantly protected against DSP-4 induced noradrenaline depletion
- MAO-B % Inhibition (MAO-B; [4]): 20.3%
- neurite index on coadministration with NGF (PC12 cells; CVT-P040 100 μM with 0.3 or 1.0 ng/ml NGF, against NGF alone, in words): increased the neurite index above those cultures receiving 0.3 or 1.0 ng/ml NGF alone
- Index of Neurite Outgrowth (PC12 cells; CVT-P040 100 μM with NGF 0.1 ng/ml): 0.55 ± 0.03
- Index of Neurite Outgrowth (PC12 cells; CVT-P040 100 μM with NGF 0.3 ng/ml): 0.97 ± 0.06
- Index of Neurite Outgrowth (PC12 cells; CVT-P040 100 μM with NGF 1.0 ng/ml): 1.53 ± 0.07
- neurite outgrowth in PC12 cells (PC12 cells; CVT-P040 100 μM, in words): increased neurite outgrowth in PC12 cells
- Index of Neurite Outgrowth (PC12 cells; CVT-P040 100 μM): 0.35 ± 0.03

SMILES: C#CCN(CCc1ccccc1)NC(C)=O [CVT-P041, N^1 -propargyl-N^2 -acetylphenelzine]
- MAO-A % Inhibition (MAO-A; [5]): 4.3 ± 6.2%
- % NA Restoration [2]: -43.2%
- NA [2]: 168 ± 31 ng/g
- protection against DSP-4 induced noradrenaline depletion / neuroprotective effect [1]: did not exhibit a neuroprotective effect
- 5-HT [3]: 946 ng/g
- DA [3]: 553 ± 129 ng/g
- MAO-B % Inhibition (MAO-B; [5]): -3.7%

SMILES: NNCCc1ccccc1 [phenelzine, 1-(2-phenyl) ethylhydrazine, reference compound]
- 5-HT [3]: 1232 ± 87 ng/g
- DA [3]: 607 ± 103 ng/g
